Common to all, as to assay type: cell-based, mouse
Assay [1] relates to IL-13. Description: Cell test: IL-13 secretion by P815 cells stimulated with compound 48/80 (ELISA). More on the design: IL-13 inhibitory activity: unit not given here. The conditions noted are these: for IL-13 inhibitory activity: 20 minutes pre-incubation with polypeptide, then compound 48/80, total 6 hours, supernatant ELISA; for IL-13 inhibitory activity (in words): compound 48/80. The procedure:
(§1) In this example, the cell line used was the P815 mouse mastocytoma cell line, and the allergen was compound 48/80. To start with, each of the polypeptides represented by SEQ ID No. 1-10 was co-cultured with the P815 cells for 20 minutes, was then added with compound 48/80, and then continued co-culturing for a total of 6 hours. When the culturing process was completed, the supernatants were collected, and the amounts of IL-4 and IL-13 secretions were analyzed by enzyme-linked immunosorbent assay (ELISA), with the results shown in FIG. 1 and Table 2.

Assay [2] concerns IL-4. Description: Cell test: IL-4 secretion by P815 cells stimulated with compound 48/80 (ELISA). Also noted: unit not given here. The note with it: 20 minutes pre-incubation with polypeptide, then compound 48/80, total 6 hours, supernatant ELISA. As to the method: as §1
The test system of assay [3] is Th2 pathway. As to the kind of experiment: Cell test: overall inhibitory activity on the Th2 pathway (IL-4 and IL-13, P815 cells). The note with it: all in all, from IL-4 and IL-13 results in P815 cells. The procedure: as §1
It can be known from the results in FIG. 1 and Table 2 that the polypeptides represented by SEQ ID No. 1-10 had IL-4 inhibitory activity; that the polypeptides represented by SEQ ID NO.

ALYPLLTTLTD [SEQ ID No. 5]: in assay [1], the IL-13 inhibitory activity was −71.4 and the “IL-13 inhibitory activity (in words)” value is reported as “had IL-13 inhibitory activity”. Further, the IL-4 inhibitory activity in assay [2] is −13.1.
Turning to GHCGCSSG [SEQ ID No. 8], the IL-13 inhibitory activity in assay [1] is recorded as 0.0. Also, the IL-4 inhibitory activity in assay [2] was −38.5. Besides, in assay [3], the “inhibitory activity on the Th2 pathway (in words)” value is “relatively good inhibitory activity”.
Turning to IGVDEHYTPI [SEQ ID No. 10], the IL-13 inhibitory activity in assay [1] is 0.0. The IL-4 inhibitory activity in assay [2] was −7.2.
On to INFVTEEDKR [SEQ ID No. 1], for which, in assay [1], the IL-13 inhibitory activity is 0.0. Besides, the IL-4 inhibitory activity in assay [2] is listed as −25.2.
In the case of LGVTNINISDP [SEQ ID No. 2], the IL-13 inhibitory activity in assay [1] was determined as 0.0. Besides, the IL-4 inhibitory activity in assay [2] is −16.0.
Taken in the same sequence, the figures for LVGTDVATAQAP [SEQ ID No. 7] were 0.0 and −23.9.
As for NFIVTGLQDIM [SEQ ID No. 9], in assay [1], the IL-13 inhibitory activity is listed as −57.1 and the “IL-13 inhibitory activity (in words)” value is reported as “had IL-13 inhibitory activity”. Besides, in assay [2], the IL-4 inhibitory activity is reported as −11.5. The “inhibitory activity on the Th2 pathway (in words)” value in assay [3] is “relatively good inhibitory activity”.
For RLTDYFTID [SEQ ID No. 3], the IL-13 inhibitory activity in assay [1] stood at 0.0. For the same sequence, the IL-4 inhibitory activity in assay [2] is listed as −8.9.
In the case of SMNLSLVLQVV [SEQ ID No. 4], in assay [1], the IL-13 inhibitory activity is recorded as −21.4 and the “IL-13 inhibitory activity (in words)” value is recorded as “had IL-13 inhibitory activity”. For the same sequence, the IL-4 inhibitory activity in assay [2] was −32.9. Besides, in assay [3], the “inhibitory activity on the Th2 pathway (in words)” value is “relatively good inhibitory activity”.
On to VRYLEWSNIESIIA [SEQ ID No. 6], for which the IL-13 inhibitory activity in assay [1] was −60.7. Further, in assay [2], the IL-4 inhibitory activity is −22.2. Also, in assay [3], the “inhibitory activity on the Th2 pathway (in words)” value is reported as “relatively good inhibitory activity”.

These data come from US20250368683A1, “METHOD FOR TREATING OR PREVENTING BRONCHIAL ALLERGIC DISEASES WITH PEPTIDE COMPOSITION” (Greenyn Biotechnology Co., Ltd, priority 2024, published 2025).
